Data taken from paper PMC2943488 (Molecular bioSystems, 2010).

What was measured:
[1] = system: primary human hepatocytes; assay: Lactate dehydrogenase; type: cell-based
[2] = system: MEK–ERK signaling (p-MEK1, p-ERK1/2); assay: Bio-Plex bead-based phosphoprotein assay, MEK–ERK pathway; type: cell-based, human
[3] = system: Akt, p70 S6K, MEK–ERK, and p38–HSP27 signaling pathways; conditions: donor #2; 100*Cmax

## N#CC(=C(/N)Sc1ccccc1N)/C(C#N)=C(/N)Sc1ccccc1N [U0126]
[1]; donor #3
  toxicity induced by inhibitor itself in human hepatocytes: minimal toxicity
[2]; donor #3, selection from panel of candidate inhibitors
  inhibition of MEK signaling in human hepatocytes: potently inhibit signaling

## CC[C@H]1OC(=O)[C@H](C)[C@@H](O[C@H]2C[C@@](C)(OC)[C@@H](O)[C@H](C)O2)[C@H](C)[C@@H](O[C@@H]2O[C@H](C)C[C@H](N(C)C)[C@H]2O)[C@](C)(OC)C[C@@H](C)C(=O)[C@H](C)[C@@H](O)[C@]1(C)O [clarithromycin]
[2]; donor #1 and donor #2, 100*Cmax
  MEK–ERK signaling under drug treatment: sustained activation of MEK–ERK signaling

## CN(C)CCCN1c2ccccc2CCc2ccc(Cl)cc21 [clomipramine]
[3]
  activation of the four 'network gauge' signaling pathways compared to control treatments: without significant activation

## N[C@@H]1[C@H]2CN(c3nc4c(cc3F)c(=O)c(C(=O)O)cn4-c3ccc(F)cc3F)C[C@@H]12 [trovafloxacin]
[1]; drug ± three-cytokine/LPS mix, donors #1 and #2
  synergistic induction of cell death by drug/cytokine co-treatment: synergistically induced
